Data published in patent publication US20240294522A1 (Lead Discovery Center GmbH, priority 2021, published 2024).

Assays:
GRK2 = biological target: T1, GRK2 (Homo sapiens, UniProt P25098); assay: Lance Kinase Activity Assay, GRK2; conditions: biochemical Lance kinase activity assay; class symbols A-F; read-out: GRK2 LANCE Assay (IC-50)
T1 construct: purchased Thermo Scientific
T1 sequence (P25098 1-689): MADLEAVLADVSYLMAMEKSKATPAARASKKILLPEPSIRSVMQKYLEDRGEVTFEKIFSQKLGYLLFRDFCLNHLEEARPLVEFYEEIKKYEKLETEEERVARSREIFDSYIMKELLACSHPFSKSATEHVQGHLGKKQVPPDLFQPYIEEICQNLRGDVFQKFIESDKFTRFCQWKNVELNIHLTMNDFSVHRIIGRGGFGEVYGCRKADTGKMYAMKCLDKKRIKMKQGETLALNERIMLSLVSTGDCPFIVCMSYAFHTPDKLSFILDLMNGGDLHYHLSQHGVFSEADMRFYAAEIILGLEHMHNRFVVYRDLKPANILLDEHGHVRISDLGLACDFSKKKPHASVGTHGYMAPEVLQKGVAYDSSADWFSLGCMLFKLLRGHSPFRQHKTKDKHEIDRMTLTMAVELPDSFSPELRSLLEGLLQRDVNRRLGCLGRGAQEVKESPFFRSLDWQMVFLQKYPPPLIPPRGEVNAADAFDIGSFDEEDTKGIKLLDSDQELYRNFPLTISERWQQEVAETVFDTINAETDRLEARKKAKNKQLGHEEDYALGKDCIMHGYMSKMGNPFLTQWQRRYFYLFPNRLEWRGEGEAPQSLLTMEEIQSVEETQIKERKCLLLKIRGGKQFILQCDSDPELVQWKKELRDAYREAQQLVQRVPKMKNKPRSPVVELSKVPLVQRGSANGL
Experimental: (§1) This protocol describes how the Lance Kinase Activity Assay was performed to determine IC50 values of compounds of general formula (I) against GRK5 and GRK2.
(§2) The principle behind this enzymatic assay is based upon the phosphorylation of the Ulight-peptide substrate. It is detected by using a specific EU-labeled anti-phospho peptide antibody. The binding of the Eu labeled anti-phospho peptide antibody to the phosphorylated ULight labeled peptide gives rise to a FRET-signal. Binding of an inhibitor to the kinase prevents phosphorylation of the Ulight-substrate, resulting in a loss of FRET. In tables 2 and 3 the relevant information for these two LANCE assays is summarized.
(§3) For every sample, 2 μl of assay buffer (50 mM HEPES pH 7,5, 10 mM MgCL2, 1 mM EGTA 0,01% Tween 20, 1% DMSO, 2 mM DTT) were transferred into a suitable assay plate (e.g. Corning #3673). Compounds were added in a concentration range from 10 μM to 0.0025 μM using an acoustic dispenser (Echo520 from Labcycte, San Jose, USA) equipped with Echo Dose Response software. After that 6 μl of kinase-substrate mix was added. Reaction was started by addition of 2 μl ATP working solution and mixed using a Bioshake 5000 microplate shaker (Q Instruments, Jena, Germany).
(§4) After 1 h incubation at room temperature the reaction was stopped with 10 μl detection mix containing the Eu-labeled phosphospecific antibody and 10 mM EDTA. After a second incubation period of 1 h at room temperature the FRET signal was measured at 340 nm excitation, 665 nm and 615 nm emission (for the ULight-substrate and Eu-AB, respectively) with an Envision microplate reader (Perkin Elmer, Waltham, MA, USA) with 50 μs delay and 300 μs integration time. IC50 values were determined from the sigmoidal dose response curves with the software Quattro Workflow (Quattro GmbH, Munich, Germany).
(§5) Inhibition is indicated as IC50 [nM] (“−”=not measured). Compounds having an activity designated as “A” provided an IC50≤50 nM; compounds having an activity designated as “B” provided an 50 nM<IC50≤100 nM; compounds having an activity designated as “C” provided an 100 nM<IC50≤500 nM; compounds having an activity designated as “D” provided an 500 nM<IC50≤1000 nM; compounds having an activity designated as “E” provided an 1000 nM<IC50≤10000 nM; and compounds having an activity designated as “F” provided an IC50>10000 nM.

GRK5 = biological target: T2, GRK5 (Homo sapiens, UniProt P34947); assay: Lance Kinase Activity Assay, GRK5; conditions: biochemical Lance kinase activity assay; class symbols A-F; read-out: GRK5 LANCE Assay (IC-50)
T2 construct: purchased Thermo Scientific
Experimental: as §1, §2, §3, §4, §5

T2 sequence (P34947 whole entry): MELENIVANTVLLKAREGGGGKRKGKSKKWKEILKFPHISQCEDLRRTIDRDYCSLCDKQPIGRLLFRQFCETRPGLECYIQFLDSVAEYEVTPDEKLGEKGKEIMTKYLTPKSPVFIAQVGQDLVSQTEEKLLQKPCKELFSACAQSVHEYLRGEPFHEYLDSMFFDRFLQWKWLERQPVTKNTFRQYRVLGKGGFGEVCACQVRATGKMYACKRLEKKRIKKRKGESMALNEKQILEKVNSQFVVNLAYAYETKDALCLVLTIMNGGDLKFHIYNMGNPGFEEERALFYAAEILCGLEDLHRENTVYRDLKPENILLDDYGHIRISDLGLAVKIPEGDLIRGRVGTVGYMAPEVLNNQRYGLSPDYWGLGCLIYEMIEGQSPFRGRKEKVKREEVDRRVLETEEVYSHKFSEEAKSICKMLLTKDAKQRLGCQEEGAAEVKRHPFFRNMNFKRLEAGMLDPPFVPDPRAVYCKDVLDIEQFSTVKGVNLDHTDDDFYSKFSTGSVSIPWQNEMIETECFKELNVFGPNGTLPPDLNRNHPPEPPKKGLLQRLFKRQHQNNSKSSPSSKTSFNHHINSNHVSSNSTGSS

C[C@@H](NC(=O)/C(C#N)=C/c1c[nH]c2ncc(-c3cnn(C)c3)cc12)c1ccc(F)c(F)c1 [Example 258, (R,E)-2-cyano-N-(1-(3,4-difluorophenyl)ethyl)-3-(5-(1-methyl-1H-pyrazol-4-yl)-1H-pyrrolo[2,3-b]pyridin-3-yl)acrylamide]
IC50 (GRK2): 0.1 to 0.5 µM | IC50 (GRK5): ≤ 50 nM

N#C/C(=C\c1c[nH]c2ncc(C(F)(F)F)cc12)C(=O)NCc1ccccc1 [Example 71, (E)-N-benzyl-2-cyano-3-(5-(trifluoromethyl)-1H-pyrrolo[2,3-b]pyridin-3-yl)acrylamide]
IC50 (GRK2): > 10 µM | IC50 (GRK5): 1000 to 10000 nM

COc1ccc([C@@H](C)NC(=O)/C(C#N)=C/c2c[nH]c3ncc(-c4cnn(C5CCN(C(=O)OC(C)(C)C)CC5)c4)cc23)cc1OC [Example 165]
IC50 (GRK2): 1 to 10 µM | IC50 (GRK5): 50 to 100 nM

COc1ccc([C@@H](C)NC(=O)/C=C/c2c[nH]c3nccc(-c4ccccc4)c23)cc1OC [Example 225, (R,E)-N-(1-(3,4-dimethoxyphenyl)ethyl)-3-(4-phenyl-1H-pyrrolo[2,3-b]pyridin-3-yl)acrylamide]
IC50 (GRK2): 1 to 10 µM | IC50 (GRK5): 50 to 100 nM

COc1ccc([C@@H](C)NC(=O)/C=C/c2c[nH]c3ncc(-c4cncnc4)cc23)cc1OC [Example 207, (R,E)-N-(1-(3,4-dimethoxyphenyl)ethyl)-3-(5-(pyrimidin-5-yl)-1H-pyrrolo[2,3-b]pyridin-3-yl)acrylamide]
IC50 (GRK2): > 10 µM | IC50 (GRK5): 500 to 1000 nM

COc1ccc([C@@H](C)NC(=O)/C=C/c2c[nH]c3ncc(-c4cnn(C)c4)cc23)cc1OC [Example 204, (R,E)-N-(1-(3,4-dimethoxyphenyl)ethyl)-3-(5-(1-methyl-1H-pyrazol-4-yl)-1H-pyrrolo[2,3-b]pyridin-3-yl)acrylamide]
IC50 (GRK2): 1 to 10 µM | IC50 (GRK5): ≤ 50 nM

COc1ccc([C@@H](C)NC(=O)/C=C/c2c[nH]c3ncc(-c4ccc(F)c(S(C)(=O)=O)c4)cc23)cc1OC [Example 220, (R,E)-N-(1-(3,4-dimethoxyphenyl)ethyl)-3-(5-(4-fluoro-3-(methylsulfonyl)phenyl)-1H-pyrrolo[2,3-b]pyridin-3-yl)acrylamide]
IC50 (GRK2): 1 to 10 µM | IC50 (GRK5): ≤ 50 nM

COc1ccc([C@@H](C)NC(=O)/C=C/c2c[nH]c3nccc(-c4cccc(NS(C)(=O)=O)c4)c23)cc1OC [Example 231, (R,E)-N-(1-(3,4-dimethoxyphenyl)ethyl)-3-(4-(3-(methylsulfonamido)phenyl)-1H-pyrrolo[2,3-b]pyridin-3-yl)acrylamide]
IC50 (GRK2): > 10 µM | IC50 (GRK5): 100 to 500 nM

CN(C)CCC(NC(=O)/C(C#N)=C/c1c[nH]c2ncccc12)c1ccccc1 (stereo not drawn) [Example 48, (E)-2-cyano-N-(3-(dimethylamino)-1-phenylpropyl)-3-(1H-pyrrolo[2,3-b]pyridin-3-yl)acrylamide]
IC50 (GRK2): 0.05 to 0.1 µM | IC50 (GRK5): ≤ 50 nM

Cc1c(-c2cnn(C)c2)cnc2[nH]cc(/C=C(\C#N)C(=O)N[C@H](C)c3ccc(Cl)cc3)c12 [Example 100, (R,E)-N-(1-(4-chlorophenyl)ethyl)-2-cyano-3-(4-methyl-5-(1-methyl-1H-pyrazol-4-yl)-1H-pyrrolo[2,3-b]pyridin-3-yl)acrylamide]
IC50 (GRK2): 1 to 10 µM | IC50 (GRK5): 500 to 1000 nM

COc1ccc([C@@H](C)NC(=O)/C(C#N)=C/c2c[nH]c3ncc(-c4cnn(C5COC5)c4)cc23)cc1OC [Example 155]
IC50 (GRK2): 1 to 10 µM | IC50 (GRK5): ≤ 50 nM

N#C/C(=C\c1c[nH]c2ncccc12)C(=O)NCc1ccccc1Cl [Example 62, (E)-N-(2-chlorobenzyl)-2-cyano-3-(1H-pyrrolo[2,3-b]pyridin-3-yl)acrylamide]
IC50 (GRK2): 1 to 10 µM | IC50 (GRK5): 100 to 500 nM

COc1ccc([C@@H](C)NC(=O)/C=C/c2c[nH]c3nccc(-c4ccc(CN5CCOCC5)cc4)c23)cc1OC [Example 232, (R,E)-N-(1-(3,4-dimethoxyphenyl)ethyl)-3-(4-(4-(morpholinomethyl)phenyl)-1H-pyrrolo[2,3-b]pyridin-3-yl)acrylamide]
IC50 (GRK2): 1 to 10 µM | IC50 (GRK5): 50 to 100 nM

COc1ccc([C@@H](C)NC(=O)/C=C/c2c[nH]c3ncc(-c4cnn(C)c4C)cc23)cc1OC [Example 202, (R,E)-N-(1-(3,4-dimethoxyphenyl)ethyl)-3-(5-(1,5-dimethyl-1H-pyrazol-4-yl)-1H-pyrrolo[2,3-b]pyridin-3-yl)acrylamide]
IC50 (GRK2): 1 to 10 µM | IC50 (GRK5): ≤ 50 nM

Cc1c(-c2cnn(C)c2)cnc2[nH]cc(/C=C(\C#N)C(=O)N[C@H](C)c3ccc(F)cc3)c12 [Example 98, (R,E)-2-cyano-N-(1-(4-fluorophenyl)ethyl)-3-(4-methyl-5-(1-methyl-1H-pyrazol-4-yl)-1H-pyrrolo[2,3-b]pyridin-3-yl)acrylamide]
IC50 (GRK2): 0.5 to 1 µM | IC50 (GRK5): 500 to 1000 nM

COc1ccc([C@@H](C)NC(=O)/C=C/c2c[nH]c3ncc(-c4cccc(NS(C)(=O)=O)c4)cc23)cc1OC [Example 193]
IC50 (GRK2): 1 to 10 µM | IC50 (GRK5): ≤ 50 nM

COc1ccc([C@@H](C)NC(=O)/C(C#N)=C/c2c[nH]c3ncc(-c4cnn(C)c4)cc23)cc1OC [Example 164]
IC50 (GRK2): 1 to 10 µM | IC50 (GRK5): ≤ 50 nM

COc1ccc([C@@H](C)NC(=O)/C=C/c2c[nH]c3ncc(-c4cc(F)cc(S(C)(=O)=O)c4)cc23)cc1OC [Example 249, (R,E)-N-(1-(3,4-dimethoxyphenyl)ethyl)-3-(5-(3-fluoro-5-(methylsulfonyl)phenyl)-1H-pyrrolo[2,3-b]pyridin-3-yl)acrylamide]
IC50 (GRK2): 1 to 10 µM | IC50 (GRK5): ≤ 50 nM

C[C@@H](NC(=O)/C(C#N)=C/c1c[nH]c2ncc(-c3cnn(C)c3)cc12)c1ccc(Cl)cc1 [Example 95, (R,E)-N-(1-(4-chlorophenyl)ethyl)-2-cyano-3-(5-(1-methyl-1H-pyrazol-4-yl)-1H-pyrrolo[2,3-b]pyridin-3-yl)acrylamide]
IC50 (GRK2): 1 to 10 µM | IC50 (GRK5): 50 to 100 nM

C[C@@H](NC(=O)/C(C#N)=C/c1c[nH]c2ncc(Br)cc12)c1ccc(F)cc1 [Example 79, (R,E)-3-(5-bromo-1H-pyrrolo[2,3-b]pyridin-3-yl)-2-cyano-N-(1-(4-fluorophenyl)ethyl)acrylamide]
IC50 (GRK2): 1 to 10 µM | IC50 (GRK5): 100 to 500 nM

N#C/C(=C\c1c[nH]c2ncccc12)C(=O)NC(c1cccc(Br)c1)C(F)(F)F (stereo not drawn) [Example 47, (E)-N-(1-(3-bromophenyl)-2,2,2-trifluoroethyl)-2-cyano-3-(1H-pyrrolo[2,3-b]pyridin-3-yl)acrylamide]
IC50 (GRK2): > 10 µM | IC50 (GRK5): 1000 to 10000 nM

COc1ccc([C@@H](C)NC(=O)/C=C/c2c[nH]c3nccc(-c4cnn5ccccc45)c23)cc1OC [Example 242, (R,E)-N-(1-(3,4-dimethoxyphenyl)ethyl)-3-(4-(pyrazolo[1,5-a]pyridin-3-yl)-1H-pyrrolo[2,3-b]pyridin-3-yl)acrylamide]
IC50 (GRK2): > 10 µM | IC50 (GRK5): 100 to 500 nM

COc1ccc([C@@H](C)NC(=O)/C(C#N)=C/c2c[nH]c3ncc(-c4cccc(OCCN(C)C)c4)cc23)cc1OC [Example 152]
IC50 (GRK2): 1 to 10 µM | IC50 (GRK5): ≤ 50 nM

COc1ccc([C@@H](C)NC(=O)/C=C/c2c[nH]c3ncc(-c4ccc(F)cc4OC)cc23)cc1OC [Example 201, (R,E)-N-(1-(3,4-dimethoxyphenyl)ethyl)-3-(5-(4-fluoro-2-methoxyphenyl)-1H-pyrrolo[2,3-b]pyridin-3-yl)acrylamide]
IC50 (GRK2): > 10 µM | IC50 (GRK5): 100 to 500 nM
